Experimental data as given in publication PMC10384010, “Chromatographic Data in Statistical Analysis of BBB Permeability Indices” (Membranes, 2023).
Where two headings read alike, the source gives them in different places.

Experiments:
[1] = Normal-phase TLC on silica gel 60 F254 (Rf); type: physicochemical; conditions: water:methanol:acetonitrile 60:20:20, ammonium acetate pH 7.4
[2] = HPLC on IAM (immobilized artificial membrane) column, retention factor; type: physicochemical; conditions: IAM.PC.DD.2 column; for k(IAM) retention factor: 10 mM phosphate buffer pH 7.4:acetonitrile 80:20; for logkIAM: logarithm of retention factor, phosphate buffer pH 7.4:acetonitrile 80:20
[3] = entering the CNS / not entering the CNS; ref Drugbank [36]; cited from earlier work
[4] = Reversed-phase TLC on RP-2 silanized plates (Rf); type: physicochemical; conditions: silica gel 60 RP-2 F254 silanized; water:methanol:acetonitrile 60:20:20, ammonium acetate pH 7.4
Experimental: The purity of the isolated substances was checked by TLC chromatography and densitometric scanning.
APIs were subjected to chromatographic in column (HPLC) and thin layer (TLC) formats. TLC chromatography was carried out on 20 cm × 20 cm glass plates by Merck, covered with silica gel and the addition of a fluorescent indicator. Merck TLC silica gel 60 F254 was used for the normal phase (NP). In the reverse phase (RP), RP-2 silanized plates were used (Merck TLC Silica gel 60 RP-2 F254, silanized). The mobile phase was buffered with ammonium acetate to pH 7.4 (LACH-NER, ammonium acetate).
Plates, after developing the chromatograms, were scanned using a densitometer (Desaga CD 60) with an analytical wavelength selected individually for drugs. The values of Rf (molecular descriptors: NP, RP) were determined.

[5] = cited from earlier work
[6] = plasma protein binding, given as fraction, ref Drugbank

SMILES | NP (Rf from NP TLC plate) [1] | k(IAM) retention factor [2] | logkIAM [2] | CNS+/- [3] | RP (Rf from RP-2 TLC plate) [4] | PB (protein binding) ([5]; plasma) | PB (protein binding) [5, 6]
CC(=O)CC(c1ccc([N+](=O)[O-])cc1)c1c(O)c2ccccc2oc1=O (stereo not shown) [acenocumarol] | 0.99 | 0.53 | -0.27 | 1 |  |  | 
CC1(C)S[C@@H]2[C@H](NC(=O)[C@H](N)c3ccc(O)cc3)C(=O)N2[C@H]1C(=O)O [amoxilcillin] | 0.68 | 0.05 | -1.32 |  | 0.99 | 0.2 | 
CNCCc1ccccn1 [betahistine] | 0.17 | 0.90 | -0.05 | 1 | 0.31 |  | 
CCOCCn1c(C2CCN(CCc3ccc(C(C)(C)C(=O)O)cc3)CC2)nc2ccccc21 [bilastine] | 0.46 | 0.55 | -0.26 |  | 0.76 |  | 0.87
OC(CCN1CCCCC1)(c1ccccc1)C1CC2C=CC1C2 (stereo not shown) [biperiden] | 0.68 | 41.47 | 1.62 |  | 0.87 |  | 0.6
CC(C)C[C@H]1C(=O)N2CCC[C@H]2[C@]2(O)O[C@](NC(=O)[C@@H]3C=C4c5cccc6[nH]c(Br)c(c56)C[C@H]4N(C)C3)(C(C)C)C(=O)N12 [bromocriptine] | 0.95 | 12.69 | 1.10 |  | 0.69 |  | 0.93
CCCCCOC(=O)Nc1nc(=O)n([C@@H]2O[C@H](C)[C@@H](O)[C@H]2O)cc1F [capecitabine] | 0.92 | 1.11 | 0.04 | 1 | 0.9 |  | 
C=CCN1C[C@H](C(=O)N(CCCN(C)C)C(=O)NCC)C[C@@H]2c3cccc4[nH]cc(c34)C[C@H]21 [carbegoline] | 0.68 | 17.05 | 1.23 |  | 0.68 | 0.41 | 
CCN(CC)C(=O)Nc1ccc(OCC(O)CNC(C)(C)C)c(C(C)=O)c1 (stereo not shown) [celiprolol] | 0.45 | 5.87 | 0.77 |  | 0.75 |  | 0.275
CC[C@H]1OC(=O)[C@H](C)[C@@H](O[C@H]2C[C@@](C)(OC)[C@@H](O)[C@H](C)O2)[C@H](C)[C@@H](O[C@@H]2O[C@H](C)C[C@H](N(C)C)[C@H]2O)[C@](C)(OC)C[C@@H](C)C(=O)[C@H](C)[C@@H](O)[C@]1(C)O [clarithromycin] | 0.99 | 0.10 | -1.02 | 0 | 0.83 |  | 
O=C(O)C1N=C(c2ccccc2)c2cc(Cl)ccc2NC1=O (stereo not shown) [clorazepate] | 0.94 | 4.88 | 0.69 |  | 0.81 |  | 0.975
CN(C)CCOC(c1ccccc1)c1ccccc1 [diphenhydramin] | 0.42 | 3.66 | 0.56 |  | 0.58 | 0.985 | 
CCOc1ccc(/C=C2\NCCc3cc(OCC)c(OCC)cc32)cc1OCC [drotaverine] | 0.61 | 31.24 | 1.49 | 1 | 0.55 |  | 
CN1CCC[C@@H]1Cc1c[nH]c2ccc(CCS(=O)(=O)c3ccccc3)cc12 [eletriptan] |  |  |  | 1 |  |  | 
C[C@]12CC[C@@H]3c4ccc(OC(=O)c5ccccc5)cc4CC[C@H]3[C@@H]1CC[C@@H]2O [estradiol benzoate] | 0.97 | 6.92 | 0.84 |  | 0.63 |  | 0.95
C[C@]12CC[C@@H]3c4ccc(O)cc4CC[C@H]3[C@@H]1CCC2=O [estrone] | 0.99 | 29.40 | 1.47 |  | 0.79 |  | 0.95
CC[C@@H](CO)NCCN[C@@H](CC)CO [ethambutol] | 0.19 |  |  | 0 | 0.97 |  | 
O[C@@H]1CO[C@H]2[C@@H]1OC[C@@H]2O [isosorbide] | 0.26 | 0.21 | -0.68 | 1 | 0.54 |  | 
C[C@H]1COc2c(N3CCN(C)CC3)c(F)cc3c(=O)c(C(=O)O)cn1c23 [levofloxacin] | 0.17 | 0.90 | -0.04 |  | 0.27 |  | 0.31

SMILES | NP (Rf from NP TLC plate) [1] | k(IAM) retention factor [2] | logkIAM [2] | CNS+/- [3] | RP (Rf from RP-2 TLC plate) [4] | PB (protein binding) ([5]; plasma) | PB (protein binding) [5, 6]
CN1CCN=C(c2ccccc2)c2cc(Cl)ccc21 [medazepam] | 0.91 | 34.65 | 1.54 |  | 0.66 |  | 0.99
CN(C)C(=N)N=C(N)N [metformin] | 0.21 | 0.34 | -0.47 | 1 | 0.78 |  | 
COCCc1ccc(OCC(O)CNC(C)C)cc1 (stereo not shown) [metoprolol] | 0.48 | 4.32 | 0.64 | 0 | 0.28 |  | 
OC(CNCC(O)C1CCc2cc(F)ccc2O1)C1CCc2cc(F)ccc2O1 (stereo not shown) [nebivolol] | 0.75 |  |  | 1 | 0.4 |  | 
C[C@]12C=CC(=O)C=C1CC[C@@H]1[C@@H]2[C@@H](O)C[C@@]2(C)[C@H]1CC[C@]2(O)C(=O)CO [prednizolone] | 0.94 | 2.84 | 0.45 |  | 0.87 | 0.9 | 
CC(=O)[C@H]1CC[C@H]2[C@@H]3CCC4=CC(=O)CC[C@]4(C)[C@H]3CC[C@]12C [progesterone] | 0.96 | 34.99 | 1.54 |  | 0.71 |  | 0.975
CNC(=C[N+](=O)[O-])NCCSCc1ccc(CN(C)C)o1 [ranitidine] | 0.24 | 0.67 | -0.17 | 0 | 0.81 |  | 
CO[C@H]1/C=C/O[C@@]2(C)Oc3c(C)c(O)c4c(O)c(c(/C=N/N5CCN(C)CC5)c(O)c4c3C2=O)NC(=O)/C(C)=C\C=C\[C@H](C)[C@H](O)[C@@H](C)[C@@H](O)[C@@H](C)[C@H](OC(C)=O)[C@@H]1C [rifampicin] | 0.73 |  |  |  | 0.95 |  | 0.89
CC[C@H]1OC(=O)[C@H](C)[C@@H](O[C@H]2C[C@@](C)(OC)[C@@H](O)[C@H](C)O2)[C@H](C)[C@@H](O[C@@H]2O[C@H](C)C[C@H](N(C)C)[C@H]2O)[C@](C)(O)C[C@@H](C)/C(=N\OCOCCOC)[C@H](C)[C@@H](O)[C@]1(C)O [roxitromicin] | 0.91 |  |  |  | 0.8 | 0.96 | 
Cc1cncc(CN2CCC(=C3c4ccc(Cl)cc4CCc4cccnc43)CC2)c1 [rupatadine] | 0.42 | 9.29 | 0.97 |  | 0.55 |  | 0.985
CN[C@H]1CC[C@@H](c2ccc(Cl)c(Cl)c2)c2ccccc21 [sertraline] | 0.53 | 42.89 | 1.63 |  | 0.49 |  | 0.98
CCCc1nn(C)c2c(=O)[nH]c(-c3cc(S(=O)(=O)N4CCN(C)CC4)ccc3OCC)nc12 [sildenafil] | 0.69 | 14.26 | 1.15 | 1 | 0.77 |  | 
CC(=O)S[C@@H]1CC2=CC(=O)CC[C@]2(C)[C@H]2CC[C@@]3(C)[C@@H](CC[C@@]34CCC(=O)O4)[C@H]12 [spironolactone] | 0.98 | 13.38 | 1.13 |  | 0.78 |  | 0.9
CCN1CCCC1CNC(=O)c1cc(S(N)(=O)=O)ccc1OC (stereo not shown) [sulpiride] | 0.27 | 1.66 | 0.22 |  | 0.85 |  | 0.4
COc1cc(Cc2cnc(N)nc2N)cc(OC)c1OC [trimethoprim] | 0.57 |  |  | 1 |  |  | 
CCN(Cc1ccncc1)C(=O)C(CO)c1ccccc1 (stereo not shown) [tropicamid] | 0.85 | 1.06 | 0.03 |  | 0.83 | 0.45 | 
CN(C)CCc1c[nH]c2ccc(C[C@H]3COC(=O)N3)cc12 [zolmitriptane] | 0.31 | 3.30 | 0.52 |  | 0.86 | 0.25 | 
CN1CCN(C(=O)OC2c3nccnc3C(=O)N2c2ccc(Cl)cn2)CC1 (stereo not shown) [zopiclone] | 0.96 | 0.91 | -0.04 |  | 0.84 |  | 0.45
